Structures can show the parent of a compound that is named as a salt.
Tests used:
[1] = biological target: T1, dopamine D4 receptors in cloned human dopamine receptor subtype 4.2 membranes (Homo sapiens, UniProt P21917, DEL265-296); test: 3H-YM-09151-2 binding; conditions: 3H-YM-09151-2, cloned human D4.2 membranes
T1 construct: purchased Dupharma A/S, Denmark CRM-016
T1 sequence (P21917 with tags, fused parts or gaps DEL265-296): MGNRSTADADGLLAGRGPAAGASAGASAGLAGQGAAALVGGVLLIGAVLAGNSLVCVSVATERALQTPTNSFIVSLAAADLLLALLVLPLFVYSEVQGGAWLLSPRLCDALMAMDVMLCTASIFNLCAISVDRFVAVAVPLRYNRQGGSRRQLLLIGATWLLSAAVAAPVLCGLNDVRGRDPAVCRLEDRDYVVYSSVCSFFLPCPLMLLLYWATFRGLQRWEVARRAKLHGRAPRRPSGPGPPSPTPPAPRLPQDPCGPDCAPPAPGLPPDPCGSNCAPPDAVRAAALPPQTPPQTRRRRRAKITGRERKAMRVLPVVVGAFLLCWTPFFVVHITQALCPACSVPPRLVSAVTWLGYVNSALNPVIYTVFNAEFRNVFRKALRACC
Experimental: By this method the inhibition by drugs of the binding of the dopamine D4 antagonist ^3H-YM-09151-2 to dopamine D4 receptors in cloned human dopamine receptor subtype 4.2 membranes is determined in vitro. Accordingly, this is a test for affinity for dopamine D4 receptors. The test is performed using a preparation of cloned dopamine D4 cell membranes CRM-016®, Dupharma A/S, Denmark, in accordance with the product specifications.

Brc1ccc2c(c1)C(CN1CCN(c3ccc4c(c3)OCO4)CC1)CC2 (centres unmarked) [Compound 4b]
% inhibition of binding at 50 nM ([1]; at 50 nM): 33% at 50 nM

c1ccc2c(c1)CCC2CCN1CCN(c2ccc3c(c2)OCO3)CC1 (centres unmarked) (as salt: fumarate) [Compound 6a, 1-[2-[4-(3,4-Methylenedioxyphenyl)-piperazine-1-yl]ethyl]-indane]
melting point: 191 to 192 °C

c1ccc2c(c1)CC(CN1CCN(c3ccc4c(c3)OCO4)CC1)C2 [Compound 6b]
IC50 [1]: 1.8 nM

c1ccc2c(c1)CCC2CCN1CCN(c2ccc3c(c2)OCO3)CC1 (centres unmarked) [Compound 6a, 1-[2-[4-(3,4-Methylenedioxyphenyl)-piperazine-1-yl]ethyl]-indane]
IC50 [1]: 5.6 nM

c1ccc2c(c1)CCC2CN1CCN(c2ccc3c(c2)OCO3)CC1 (centres unmarked) [Compound 4a]
IC50 [1]: 8.8 nM

O=C(CCCN1CCN(c2ccc3c(c2)OCO3)CC1)C1CNc2ccccc21 (centres unmarked) [Compound 9a, 2,3-Dihydro-3-[4-[4[(3,4-methylenedioxyphenyl)piperazine-1-yl]butyl-1-oxo]]-1H-indole]
IC50 [1]: 4.3 nM

CC(=O)N1CC(CCN2CCN(c3ccc4c(c3)OCO4)CC2)c2ccccc21 (centres unmarked) [Compound 9b, 1-Acetyl-2,3-dihydro-3-[2-[4-[(3,4-methylenedioxyphenyl)piperazine-1-yl]ethyl]]1H-indole]
IC50 [1]: 3.7 nM

c1ccc2c(c1)CC(CN1CCN(c3ccc4c(c3)OCO4)CC1)C2 (as salt: oxalate) [Compound 6b]
melting point: 197 to 199 °C
